Assay results as given in article PMC8429249 (Journal of medicinal chemistry, 2021).
Read-outs that look alike come from different tables or passages of the source.

How the values were obtained:
[1] = target: RLuc8-KRasG12V / GFP-CRAF RBD interaction in HEK293T cells (Homo sapiens, UniProt P01116, G12V); test: Intracellular Ras-Raf BRET2 assay; type: cell-based; settings: 0–15 μM, 20 h
[2] = target: RLuc8-KRasG12D / GFP-CRAF RBD interaction in HEK293T cells (Homo sapiens, UniProt P01116, G12D); test: Intracellular Ras-Raf BRET2 assay; type: cell-based; settings: 0–15 μM, 20 h
[3] = test system: H358 cells; test: MTT cell viability assay; type: cell-based, human; settings: read-out: MTT EC50, 96 h, 10% FBS, mean ± SD
[4] = test system: H358 cells; settings: read-out: CellTiter-Glo EC50, 96 h, 10% FBS, mean ± SD

In the case of ΦOSQΦΠ-K-fArR-J-BBK-NH2 [Peptide B3-4], the “effect on BRET signal (KRasG12V-CRAF RBD)” value [1] is reported as “did not decrease the BRET signal”, the “effect on BRET signal (KRasG12D-CRAF RBD)” value [2] is reported as “did not decrease the BRET signal” and the EC50 [3] is reported as 29 ± 6 µM. It also gave an EC50 [4] of 22 ± 4 µM.
